Assay results as given in patent publication US6967237B2, “Ghrelin analogs” (priority 2000, dated 2005).
Where two headings read alike, the source gives them in different places. Where a SMILES comes first, the peptide text is derived from it. Where no end group is shown, it is not given here. [ ]: non-standard residue; d: D form. The star is where a group is joined. Octanoyl = CCCCCCCC(=O)*

Columns and labels:
[1] = target: human GHSR1a (Homo sapiens, UniProt Q92847); test: Aequorin bioluminescence functional assay (intracellular calcium mobilization) in 293AEQ17/GHSR1a cells; type: cell-based; conditions: for activation at 10 µM: read-out: Functional Assay % activation at 10 μM relative to ghrelin; for EC50: aequorin bioluminescence, HEK-293 cells expressing hGHSR1a, three separate assays
Protocol: A stable cell line expressing the human GHSR1a and the aequorin reporter protein were used for the assay.
The assay was performed using a Luminoskan RT luminometer (Labsystems Inc., Gaithersburg, Md.) controlled by custom software written for a Macintosh PowerPC 6100. […] The cells were harvested, washed once in ECB medium and resuspended to 500,000 cells/ml. 100 ml of cell suspension (corresponding to 5×10^4 cells) was then injected into the test plate containing the peptides, and the integrated light emission was recorded over 30 seconds, in 0.5 second units. 20 μL of lysis buffer (0.1% final Triton X-100 concentration) was then injected and the integrated light emission recorded over 10 seconds, in 0.5 second units. The “fractional response” values for each well were calculated by taking the ratio of the integrated response to the initial challenge to the total integrated luminescence including the Triton X-100 lysis response. The functional EC50 values were measured in three separate assays.

[2] = target: human GHS receptor 1a (Homo sapiens, UniProt Q92847); test: Competitive binding assay with [35S]-MK-677 on membranes of HEK 293-aequorin cells transfected with human GHS receptor; conditions: competition with 0.05 nM [35S]-MK-677; three separate assays in triplicate
Protocol: Prior to the binding assay, the HEK 293-AEQ17 cells (8×10^5 cells plated 18 hours before transfection in a T75 flask) were transfected with 22 μg of human GHS receptor plasmid using 264 μg lipofectamine. The open reading frame cDNA (SEQ. ID. NO. 22) encoding the human GHS receptor inserted in the mammalian expression vector pcDNA-3 (Invitrogen, Carlsbad, Calif.) was used for binding and expression studies.
For a 96-well filter binding assay, 0.05 nM [^35S]-NM-677 (specific activity ˜1200 Ci/mmol) was bound to 4 μg membrane protein per well with or without competing test ligand. The bound membranes were filtered on 0.5% polyethylenimine prewet filters (UniFilter 96 GF/C; Packard #6005174, Meriden, Conn.). Filters were washed 8 times, dried, and counted with Microscint 20 (Packard #6013621, Meriden, Conn.). IC50 values were determined from three separate assays performed in triplicate.

[3] = system: somatotrops; conditions: several species including man; cited from earlier work

human GHSR1a, sequence (Q92847 whole entry): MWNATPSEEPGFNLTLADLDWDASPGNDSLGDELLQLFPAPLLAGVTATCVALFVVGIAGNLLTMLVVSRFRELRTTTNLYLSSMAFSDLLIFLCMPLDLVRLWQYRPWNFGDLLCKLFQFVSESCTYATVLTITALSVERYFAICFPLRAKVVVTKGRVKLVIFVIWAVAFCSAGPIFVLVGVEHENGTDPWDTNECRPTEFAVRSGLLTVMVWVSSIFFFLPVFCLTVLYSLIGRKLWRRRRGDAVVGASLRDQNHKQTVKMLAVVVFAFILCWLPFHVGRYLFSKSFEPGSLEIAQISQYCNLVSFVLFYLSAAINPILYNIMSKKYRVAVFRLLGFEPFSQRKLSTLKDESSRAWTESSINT
human GHS receptor 1a, sequence (Q92847 whole entry): as above

activation at 10 µM ([1]; at 10 μM, relative to ghrelin) | Compound | also measured
105 ± 5% | CCCCCCCC(=O)NC[C@H](NC(=O)[C@H](CO)NC(=O)CN)C(=O)N[C@@H](Cc1ccccc1)C(=O)N[C@@H](CC(C)C)C(=O)N[C@@H](CO)C(=O)N1CCC[C@H]1C(=O)N[C@@H](CCC(=O)O)C(=O)N[C@@H](Cc1c[nH]cn1)C(=O)N[C@@H](CCC(N)=O)C(=O)N[C@@H](CCCNC(=N)N)C(=O)N[C@H](C(=O)N[C@@H](CCC(N)=O)C(=O)N[C@@H](CCC(N)=O)C(=O)N[C@@H](CCCNC(=N)N)C(=O)N[C@@H](CCCCN)C(=O)N[C@@H](CCC(=O)O)C(=O)N[C@@H](CO)C(=O)N[C@@H](CCCCN)C(=O)N[C@@H](CCCCN)C(=O)N1CCC[C@H]1C(=O)N1CCC[C@H]1C(=O)N[C@@H](C)C(=O)N[C@@H](CCCCN)C(=O)N[C@@H](CC(C)C)C(=O)N[C@@H](CCC(N)=O)C(=O)N1CCC[C@H]1C(=O)N[C@@H](CCCNC(=N)N)C(=O)O)C(C)C [Compound 12] | 
97 ± 9% | CCCCCCCC(=O)OC[C@H](NC(=O)[C@H](CO)NC(=O)CN)C(=O)N[C@@H](Cc1ccccc1)C(=O)N[C@@H](CC(C)C)C(=O)N[C@@H](CO)C(=O)N1CCC[C@H]1C(=O)N[C@@H](CCC(=O)O)C(=O)N[C@@H](Cc1c[nH]cn1)C(=O)N[C@@H](CCC(N)=O)C(=O)N[C@@H](CCCNC(=N)N)C(=O)N[C@H](C(=O)N[C@@H](CCC(N)=O)C(=O)N[C@@H](CCC(N)=O)C(N)=O)C(C)C [Compound 13, GSXFLSPEHQRVQQ] | 
102 ± 3% | CCCCCCCC(=O)NC[C@H](NC(=O)[C@H](CO)NC(=O)CN)C(=O)N[C@@H](Cc1ccccc1)C(=O)N[C@@H](CC(C)C)C(=O)N[C@@H](CO)C(=O)N1CCC[C@H]1C(=O)N[C@@H](CCC(=O)O)C(=O)N[C@@H](Cc1c[nH]cn1)C(=O)N[C@@H](CCC(N)=O)C(=O)N[C@@H](CCCNC(=N)N)C(=O)N[C@H](C(=O)N[C@@H](CCC(N)=O)C(=O)N[C@@H](CCC(N)=O)C(=O)O)C(C)C [Compound 14] | 
100 ± 4% | CCCCCCCC(=O)OC[C@H](NC(=O)[C@H](CO)NC(=O)CN)C(=O)N[C@@H](Cc1ccccc1)C(=O)N[C@@H](CC(C)C)C(=O)N[C@@H](CO)C(=O)N1CCC[C@H]1C(=O)N[C@@H](CCC(=O)O)C(=O)N[C@@H](Cc1c[nH]cn1)C(=O)N[C@@H](CCC(N)=O)C(=O)N[C@@H](CCCNC(=N)N)C(=O)N[C@H](C(=O)N[C@@H](CCC(N)=O)C(=O)N[C@@H](CCC(N)=O)C(=O)N[C@@H](CCCNC(=N)N)C(=O)N[C@@H](CCCCN)C(=O)N[C@@H](CCC(=O)O)C(=O)N[C@@H](CO)C(=O)N[C@@H](CCCCN)C(=O)N[C@@H](CCCCN)C(=O)N1CCC[C@H]1C(=O)N1CCC[C@H]1C(=O)N[C@@H](C)C(N)=O)C(C)C [Compound 18, GSXFLSPEHQRVQQRKESKKPPA-NH2] (H-GSS(Octanoyl)FLSPEHQRVQQRKESKKPPA-NH2) | 
92 ± 16% | CCCCCCCC(=O)OC[C@H](NC(=O)[C@H](CO)NC(=O)CN)C(=O)N[C@@H](Cc1ccccc1)C(=O)N[C@@H](CC(C)C)C(=O)N[C@@H](CO)C(=O)N1CCC[C@H]1C(=O)N[C@@H](CCC(=O)O)C(=O)N[C@@H](Cc1c[nH]cn1)C(=O)N[C@@H](CCC(N)=O)C(=O)N[C@@H](CCCNC(=N)N)C(=O)N[C@H](C(=O)N[C@@H](CCC(N)=O)C(=O)N[C@@H](CCC(N)=O)C(=O)N[C@@H](CCCNC(=N)N)C(=O)N[C@@H](CCCCN)C(=O)N[C@@H](CCC(=O)O)C(=O)N[C@@H](CO)C(N)=O)C(C)C [Compound 19, GSXFLSPEHQRVQQRKES-NH2] (H-GSS(Octanoyl)FLSPEHQRVQQRKES-NH2; N-terminus assumed) | 
96 ± 7% | CCCCCCCC(=O)OC[C@H](NC(=O)[C@H](CO)NC(=O)CN)C(=O)N[C@@H](Cc1ccccc1)C(=O)N[C@@H](CC(C)C)C(N)=O [Compound 21, GSXFL-NH2] (H-GSS(Octanoyl)FL-NH2) | 
91 ± 4% | CCCCCCCC(=O)OC[C@H](NC(=O)[C@H](CO)NC(=O)CN)C(=O)N[C@@H](Cc1ccccc1)C(N)=O [Compound 22, GSXF-NH2] (H-GSS(Octanoyl)F-NH2) | IC50 [2]: 0.889 ± 0.072 µM; EC50 [1]: 0.072 ± 0.029 µM
 | CCCCCCCC(=O)OC[C@H](NC(=O)[C@H](CO)NC(=O)CN)C(N)=O [Compound 24, GSX-NH2] (H-Gly-Ser-Ser(Octanoyl)-NH2) | activation at 10 µM [1]: 28 ± 1%
 | CCCCCCCC(=O)OC[C@H](NC(C)=O)C(=O)N[C@@H](Cc1ccccc1)C(=O)N[C@@H](CC(C)C)C(N)=O [Compound 25, Ac-XFL-NH2] (Ac-Ser(Octanoyl)-Phe-Leu-NH2) | EC50 [1]: 2.5 ± 1.2 µM; activation at 10 µM [1]: 29 ± 7%
 | H[dW]AW[dF]K-NH2 [GHRP-6] | growth hormone release from somatotrops, result in words [3]: release growth hormone from somatotrops in a dose-dependent manner

Compound | activation at 10 µM ([1]; at 10 μM, relative to ghrelin) | also measured
CCCCCCCC(=O)OC[C@H](NC(=O)[C@H](CO)NC(C)=O)C(=O)N[C@@H](Cc1ccccc1)C(=O)N[C@@H](CC(C)C)C(N)=O [Compound 23, Ac-SXFL-NH2] (Ac-SS(Octanoyl)FL-NH2) | 30 ± 5% | EC50 [1]: 1.15 ± 0.12 µM
CCCCCCCC(=O)OC[C@H](NC(=O)[C@H](CO)NC(C)=O)C(=O)N[C@@H](Cc1ccccc1)C(N)=O [Compound 26, Ac-SXF-NH2] (Ac-Ser-Ser(Octanoyl)-Phe-NH2) | 28 ± 1% | 
